Measurements: US12661355B2, “Compounds and methods for inducing UCP1 expression” (The Regents of the University of California, priority 2020, dated 2026)

Assays:
AKAP1 = biological target: T1, AKAP1 (Mus musculus, UniProt O08715); experiment: Drug Affinity Responsive Target Stability (DARTS) in BAT or brown adipocyte extracts, AKAP1; assay type: binding; settings: mouse brown adipocyte extracts, 1 h, 20 μM (CL316,243 20 nM)
T1 construct: from tissue; host or cells: mouse brown adipose tissue (BAT) lysate; also mouse brown adipocyte extracts
T1 sequence (O08715 30-857): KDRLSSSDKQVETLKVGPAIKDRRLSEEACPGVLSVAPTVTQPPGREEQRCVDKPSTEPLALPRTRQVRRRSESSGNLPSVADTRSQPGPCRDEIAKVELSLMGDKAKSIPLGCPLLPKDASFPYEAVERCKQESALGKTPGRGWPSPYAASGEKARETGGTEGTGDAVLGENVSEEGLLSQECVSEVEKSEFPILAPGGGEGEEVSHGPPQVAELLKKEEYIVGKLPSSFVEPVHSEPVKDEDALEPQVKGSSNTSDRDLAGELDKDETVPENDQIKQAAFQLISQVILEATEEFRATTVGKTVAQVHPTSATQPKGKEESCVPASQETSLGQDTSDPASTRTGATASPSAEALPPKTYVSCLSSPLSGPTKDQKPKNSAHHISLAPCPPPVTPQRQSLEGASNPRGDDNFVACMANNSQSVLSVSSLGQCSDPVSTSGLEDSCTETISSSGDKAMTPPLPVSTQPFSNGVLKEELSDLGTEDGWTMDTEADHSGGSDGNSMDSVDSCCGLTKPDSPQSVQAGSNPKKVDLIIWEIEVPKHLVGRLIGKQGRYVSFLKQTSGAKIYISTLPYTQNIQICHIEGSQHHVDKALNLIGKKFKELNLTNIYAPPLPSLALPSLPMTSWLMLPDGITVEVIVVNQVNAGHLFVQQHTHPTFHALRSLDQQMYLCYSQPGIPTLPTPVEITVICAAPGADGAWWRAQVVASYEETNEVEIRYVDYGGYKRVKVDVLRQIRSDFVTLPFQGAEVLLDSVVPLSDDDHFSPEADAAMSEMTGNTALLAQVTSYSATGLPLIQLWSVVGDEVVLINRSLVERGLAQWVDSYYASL
Procedure: […] assays were performed according to known methods. Briefly, BAT or cells within a 10 cm dish were lysed with 600 μl M-PER buffer containing protease and phosphatase inhibitors. Debris was pelleted by centrifugation at 18,000 g for 10 min at 4° C., and the lysates were harvested and supplemented with TNC buffer (50 mM Tris-HCl, 50 mM NaCl, 10 mM CaCl2). The lysates were split into two tubes and treated with either vehicle or 20 μM Z160 for 1 h at room temperature. For experiment with BAT, 100 μg of lysate was incubated with different Z160 concentrations. Different concentrations of pronase (from 1:100 to 1:10,000 dilution from a 1.25 mg/ml pronase stock) were incubated with the samples for 30 min at room temperature and the reaction was stopped with SDS loading buffer followed immediately by heating at 70° C. for 10 min. Protein lysates were separated by SDS-PAGE and transferred to a nitrocellulose membrane. After blocking in 5% milk, 0.1% Tween-20 in Tris-buffered saline (TBS), primary antibody was incubated overnight at 4° C. in 5% bovine serum albumin and 0.1% Tween-20 in TBS. Primary antibodies against AKAP1 (5203, Cell Signaling), AKAP13 (39715, One World Lab), GAPDH (GTX100118, Genetex), OPA1 (39557, One World Lab), PKA C-α (4782, Cell Signaling), PKA RII-β (ab75993, Abcam), were used at 1:2000. A goat anti-rabbit secondary antibody (sc-2030, Santa Cruz Biotechnology, Inc) was used at a 1:10,000 dilution for 1 h at room temperature in 5% milk and 0.1% Tween-20 in TBS.
The PKA tetramer consists of two catalytic and two regulatory subunits. In the mouse, these are catalytic subunits C-α and C-β, and regulatory subunits RI and RII, each with α and β isoforms (RI-α, RI-β, RII-α, RII-β). PKA is also bound to a family of anchoring proteins, A-kinase anchoring proteins (AKAPs), which allow the compartmentalization of cAMP signaling. To investigate whether Z160 binds PKA complex proteins, two techniques were applied both of which rely on ligand-induced alterations in protein stability: Cellular Thermal Shift Assay (CETSA) and Drug Affinity Responsive Target Stability (DARTS). CETSA is based on the principle that ligand binding will change the temperature at which a protein starts to unfold and aggregate, while DARTS relies on the protection of a protein from proteolysis upon specific binding to a small molecule.
To provide further evidence for an interaction between Z160 and AKAP1, DARTS assays were employed. Lysates from brown fat were treated with different Z160 concentrations for 1 h followed by pronase digestion and immunoblotting. […] The effect of Z160 on AKAP1 was confirmed using mouse brown adipocyte extracts (FIG. 15A).

PKA = PKA activity ELISA, cell or tissue lysates treated 30 min; assay type: biochemical, mouse; settings: cell lysates, 500 μM H-89 10 min, then 50 μM Z160 30 min
Procedure: PKA kinase activity was measured with an ELISA that utilized a synthetic peptide as substrate for PKA and a polyclonal antibody that recognizes the phosphorylated form of the substrate (ab139435, Abcam). PKA activity was measured in lysates from cultured brown adipocytes, mouse BAT, or liver. Cells and tissues were lysed in 20 mM MOPS, 5 mM EGTA, 2 mM EDTA, and 0.1% Triton X-100 supplemented with protease and phosphatase inhibitor as described above. Protein concentration was determined by Bradford assay and 10 μg of cells, 0.25 μg of BAT extract, or 0.5 μg of liver extract were assessed for PKA activation according to the manufacturer's instruction, with minor changes. Briefly, vehicle or Z160 was incubated with brown adipocyte cells overnight or with protein lysates for 30 min, followed by one wash before the primary antibody, 60 min incubation with the primary antibody, 30 min incubation with the secondary antibody, and by 10 min washing. Absorbance was measured after the substrate was added for 20-60 min, depending the intensity of the signal.

Ucp1 = experiment: Gene expression by qPCR in immortalized brown adipocytes; assay type: cell-based, mouse; settings: for effect of antagonist on induction of Ucp1 mRNA by Z160: 20 μM antagonist 1 h prior to and during overnight 10 μM Z160
Procedure: Primary brown adipocytes were isolated according to known methods. An established mouse brown adipocyte cell line was obtained from Dr. Bruce Spiegelman (Dana-Farber Cancer Institute, Boston, USA). To differentiate primary and immortalized brown adipocytes, cells were grown until confluency in DMEM containing 10% FBS, 25 mM glucose 1 mM pyruvate, 2 mM glutamine, 20 nM insulin, 1 nM T3, and antibiotics. Once confluent (day 0), differentiation was induced by supplementing the medium with 0.5 mM IBMX, 0.5 μM dexamethasone, and 0.125 mM indomethacin, for 2 days. Differentiation was continued in the original medium (without IBMX, dexamethasone and indomethacin) for 7-10 days.
TScreening was conducted at the UCLA Molecular Screening Shared Resource using automated instruments Immortalized brown adipocytes were differentiated in T225 flasks and plated in Matrix 384-well plates (26,000 cells per well) with white flat bottom (ThermoScientific) using trypsin and collagenase type II (Sigma C6885). The small molecule libraries screened were a BioMol library (204 compounds), an FDA-approved drug library (1120 compounds), a Microsource spectrum collection (2000 compounds), and a druggable compound set (8000 compounds). Molecules were delivered at 10 μM final concentration in DMSO. The screen was performed in duplicate on different days. After 18 h, luciferase activity was measured with Bright-Glo luciferase assay system and an LJL instrument. Data were normalized to the basal response (100% activity) in the presence of DMSO. Following the primary screen, 92 molecules were selected for validation and used to treat brown adipocyte cells plated in a 96-well plate overnight. RNA was extracted with an SV 96 Total RNA Isolation System (Promega). Compounds used for follow-up studies were identified using search tools available from Molport (molport.com), and ordered from the same company.
(§1) RNA levels were measured by qPCR according to known methods. Briefly, RNA was extracted with TRIzol (Invitrogen) and reverse transcribed with iScript (Bio-Rad). Real-time PCR analysis was performed with a CFX Connect (Bio-Rad).
Mouse RNA levels were measured by qPCR according to known methods. Data were normalized to B2m and Tbp reference genes. Human RNA was extracted using an RNA Mini Plus kit (Zymo) and gene expression determined by Taqman assay. The 1-step qPCR was run on a QuantStudio 12K Flex Real Time PCR System (ThermoFisher) using the following protocol: 50° C. for 5 minutes, 95° C. for 20 seconds, 40 cycles of 95° C. for 15 seconds and 60° C. for 60 seconds. Data were normalized to PPIA and PSMB2 reference genes. For global gene expression analysis, RNA isolated from brown adipocytes treated with compounds as indicated (four biological replicates) was hybridized to Illumina mouse Ref 8 V2.0 bead chips at the University of California, Los Angeles Neuroscience Genomics Core as previously described. Data were processed with GenomeStudio V2011.1 using the quantile normalization, background subtraction, and a present call of P<0.05.

NRVM [1] = experiment: Hypertrophic gene expression in neonatal rat ventricular myocytes; assay type: cell-based; settings: agonist alone, 48 h
Procedure: (§2) Rat H9c2 cells were grown in DMEM supplemented with 10% FBS, 25 mM glucose, 1 mM pyruvate, and 2 mM glutamine Neonatal rat ventricular myocytes (NRVM) were isolated and cultured as previously described. Briefly, 2-4 day old rats were sacrificed and myocytes and fibroblasts were isolated and separated using a Percoll density gradient. Following isolation, NRVMs were plated on gelatin-coated plates in DMEM containing 10% FBS, 25 mM glucose, 1 mM pyruvate, and 2 mM glutamine The next day, FBS was replaced by 1× insulin-transferrin-selenium supplement and the cells were treated with vehicle or 10 μM Z160 for 2 days, with or without 60 μM isoproterenol or 50 μM phenylephrine.
as §1

NRVM [2] = experiment: Respirometry (reserve capacity) in neonatal rat ventricular myocytes; assay type: cell-based; settings: 48 h 100 μM isoproterenol followed by 24 h rest
Procedure: as §2
NRVM were seeded in a Seahorse Bioscience XF96 plate and cultured for 48 h in 10% FBS. Next, cells were treated with 100 μM ISO for 48 h, followed by 24 h of 10 μM Z160. Oxygen consumption rate (OCR) was recorded in a Seahorse Bioscience XF96 analyzer before and after the sequential injection of 0.75 μM oligomycin, 0.75 μm FCCP and 0.75 μM rotenone/myxothiazol. Reserve capacity was calculated as the difference between basal respiration and FCCP response.

With `C[C@H](Cc1ccc2c(c1)OC(C(=O)[O-])(C(=O)[O-])O2)NC[C@H](O)c1cccc(Cl)c1.[Na+].[Na+]` [CL316,243, reference compound] as the molecule, how does the “effect on AKAP1 (pronase susceptibility)” value (AKAP1) read?
The value was “not observed”.

How did the “PKA activity and Z160 response after pre-incubation with PKA antagonist” value (PKA) turn out when `O=S(=O)(NCCNC/C=C/c1ccc(Br)cc1)c1cccc2cnccc12` [H-89, reference compound] was run?
The value was “reduced the PKA activity and negated the Z160 response”.

And the “effect of antagonist on Z160 enhancement of Cidea and Elovl3 expression” value (Ucp1; 20 μM H-89 1 h prior to and during overnight 10 μM Z160)?
The value was “blunted”.

What about the “effect of antagonist on induction of Ucp1 mRNA by Z160” value (shortened to “effect of antagonist … by Z160”) (Ucp1) of the same molecule?
The value was “blocked the effect of Z160”.

`Oc1ccc(-c2nc(-c3ccncc3)c(-c3ccc(F)cc3)[nH]2)cc1` [SB202190, reference compound] was tested. Which “effect of antagonist … by Z160” value (Ucp1) did it give?
Its value is “blocked the effect of Z160”.

`CC(C)NCC(O)c1ccc(O)c(O)c1` (stereo not drawn) [isoproterenol] was tested. Which “expression of Nppa and Nppb” value (NRVM [1]) did it give?
Its value is “induced the expression”.

What about the “expression of Pln” value (NRVM [1]) of the same molecule?
The value was “reduced expression”.

What about the “expression of Nppa and Nppb” value (NRVM [1]; listed as ISO) of the same molecule?
Its value is “increase”.

And the “expression of Pln” value (NRVM [1]; listed as ISO)?
The value was “decreasing”.

And the “reserve capacity of mitochondrial respiration” value (NRVM [2])?
The value was “decreased the reserve capacity”.

Which results are given for `CNC[C@H](O)c1cccc(O)c1` [phenylephrine]?
expression of Nppa and Nppb (NRVM [1]): induced the expression; expression of Pln (NRVM [1]): reduced expression; expression of Nppa and Nppb (NRVM [1]; listed as PE): increase; expression of Pln (NRVM [1]; listed as PE): decreasing

Which “effect of antagonist … by Z160” value (Ucp1) does the source give for `c1ccc(CC2=NCCN2)cc1` [tolazoline, reference compound] here?
Its value is “did not prevent”.
